Experimental data taken from patent US10526291B2, “Potent dual BRD4-kinase inhibitors as cancer therapeutics” (H. Lee Moffitt Cancer Center and Research Institute, Inc., priority 2014, dated 2020).

Biological target: BRD4 (Homo sapiens, UniProt O60885)
Test: Differential Scanning Fluorimetry (DSF), stability of BRD4 upon ligand binding
Details: for ΔTm at 4 µM: 100 μM protein, 4 μM compound and 2% DMSO; for IC50: estimated
Protocol: DSF=Differential Scanning Fluorimetry; provides a measure of the increased stability of BRD4 upon ligand binding The DSF experiment was run at 100 μM protein, 4 μM compound and 2% DMSO.

Row | SMILES | ΔTm at 4 µM | IC50
1 | COc1cc(Nc2nc(Nc3ccc(N4CCNCC4)cc3)ncc2Br)ccc1Cl | 4.5 ± 0.1 °C | 680 nM
2 | COc1cc(C(=O)NC2CCN(C)CC2)ccc1Nc1ncc(C)c(Nc2cc(OC)c(Cl)c(OC)c2)n1 | 3 ± 0.11 °C | 2200 nM
3 | Cc1ccc(Nc2nc(Nc3ccc(N4CCN(C)CC4)c(F)c3)ncc2C)cc1S(=O)(=O)NC1CCC1 | 6.8 ± 0.01 °C | 120 nM
4 | Cc1cnc(Nc2ccc(N3CCN(C)CC3)c(C(F)(F)F)c2)nc1Nc1cccc(NS(=O)(=O)C(C)(C)C)c1 | 8.12 ± 0.044 °C | 129 nM
5 | COc1cc(Nc2nc(Nc3ccc(N4CCN(C)CC4)cc3)ncc2C(=O)O)ccc1Cl | 0.0094 ± 0.11 °C | 22000 nM
6 | CCCc1cnc(Nc2ccc(N3CCN(C)CC3)cc2)nc1Nc1ccc(Cl)c(OC)c1 | 3.1 ± 0.075 °C | 2000 nM
7 | Cc1ccc(Nc2nc(Nc3ccc(N4CCN(C)CC4)cc3)ncc2C)cc1S(=O)(=O)NC1CCC1 | 6.7 ± 0.13 °C | 130 nM
8 | Cc1cnc(Nc2ccc(C(=O)NC3CCN(C)CC3)c(F)c2)nc1Nc1ccc(Cl)c(NS(=O)(=O)C2(C)CC2)c1 | 10.9 ± 0.22 °C | 21 nM
9 | COc1cc(Nc2nc(Nc3ccc(N4CCN(C)CC4)cc3)ncc2Cl)cc(OC)c1 | 3.5 ± 0.17 °C | 1500 nM
10 | Cc1cnc(Nc2ccc(N3CCN(C)CC3)cc2)nc1Nc1ccc(Cl)c(OC(C)C)c1 | 6.3 ± 0.1 °C | 170 nM
11 | Cc1cnc(Nc2ccc(N3CCN(C)CC3)cc2)nc1Nc1ccc2c(c1)OCCO2 | 4.4 ± 0.11 °C | 740 nM
12 | Cc1cnc(Nc2cc(F)c(N3CCN(C)CC3)c(F)c2)nc1Nc1cccc(NS(=O)(=O)C(C)(C)C)c1 | 12.8 ± 0.058 °C | 6.28 nM
13 | CN1CCN(C(=O)Cc2ccc(Nc3ncc(F)c(Nc4ccc(C(=O)NC5CC5)cc4)n3)cc2)CC1 | 4.2 ± 0.2 °C | 850 nM
14 | Cc1cnc(Nc2cc(F)c(N3CCN(C)CC3)c(F)c2)nc1Nc1ccc(Cl)c(NS(=O)(=O)C2(C)CC2)c1 | 12.3 ± 0.167 °C | 8.6 nM
15 | CN1CCN(c2ccc(Nc3nc4c(c(Nc5cccc(NS(=O)(=O)C(C)(C)C)c5)n3)CCC4)cc2)CC1 | 6.4 ± 0.12 °C | 150 nM
16 | CN1CCN(c2ccc(Nc3ncc(F)c(Nc4ccc(C(=O)NC5CC5)cc4)n3)cc2)CC1 | 3.4 ± 0.27 °C | 1600 nM
17 | Cc1cnc(Nc2cc(F)c(N3CCN(C)CC3)c(F)c2)nc1Nc1ccc(Cl)c(NS(=O)(=O)C(C)(C)C)c1 | 13.8 ± 0.191 °C | 3.29 nM
18 | COc1ccc(Nc2nc(C)c(C)c(Nc3cccc(S(N)(=O)=O)c3)n2)cc1 | 0.12 ± 0.13 °C | 19800 nM
19 | Cc1cnc(Nc2ccc(N3CCN(C)CC3)cc2)nc1Nc1cccc(NC(=O)NC(C)C)c1 | 2.1 ± 0.1 °C | 4300 nM
20 | Cc1cnc(Nc2ccc(CC(=O)N3CCN(C)CC3)cc2)nc1Nc1ccc(Cl)c(Cl)c1 | 4.7 ± 0.14 °C | 580 nM
21 | Cc1cnc(Nc2ccc(N3CCN(C)CC3)cc2)nc1Nc1cc(NS(=O)(=O)C2CC2)cc(NS(=O)(=O)C2CC2)c1 | 5.3 ± 0.041 °C | 370 nM
22 | CN1CCN(c2ccc(Nc3nc4c(c(Nc5cccc(S(=O)(=O)NC6CC6)c5)n3)CCC4)cc2)CC1 | 4.9 ± 0.099 °C | 520 nM

Row | SMILES | ΔTm at 4 µM | IC50
23 | CN1CCN(c2ccc(Nc3nc(Nc4cccc(NS(=O)(=O)C5CC5)c4)c4ccccc4n3)cc2)CC1 | 5.8 ± 0.11 °C | 260 nM
24 | Cc1cnc(Nc2ccc(N3CCN(C)CC3)cc2)nc1Nc1ccc(Cl)c([N+](=O)[O-])c1 | 2 ± 0.05 °C | 4700 nM
25 | CC(C)S(=O)(=O)Nc1cccc(Nc2nc(Nc3ccc(N4CCN(C)CC4)cc3)nc3c2COC3)c1 | 3.9 ± 0.24 °C | 1000 nM
26 | CCOc1cc(Nc2nc(Nc3ccc(N4CCN(C)CC4)cc3)ncc2C)ccc1Cl | 6.4 ± 0.0066 °C | 160 nM
27 | Cc1cnc(Nc2ccc(CC(=O)N3CCN(C)CC3)cc2)nc1Nc1ccc(Cl)cc1 | 4.1 ± 0.21 °C | 930 nM
28 | Cc1ccc(Nc2nc(Nc3ccc(C4CCN(C)CC4)cc3)ncc2C)cc1S(=O)(=O)NC1CCC1 | 7.7 ± 0.17 °C | 58 nM
29 | CN1CCN(c2ccc(Nc3nc4c(c(Nc5ccc(Cl)c(NS(=O)(=O)C6CC6)c5)n3)CCC4)cc2)CC1 | 4.6 ± 0.05 °C | 620 nM
30 | CC(C)S(=O)(=O)Nc1cccc(Nc2nc(Nc3ccc(N4CCN(C)CC4)cc3)nc3c2CCC3)c1 | 4.3 ± 0.14 °C | 770 nM
31 | Cc1cnc(Nc2ccc(N3CCN(C)CC3)cc2)nc1Nc1ccc2c(c1)OCO2 | 0.79 ± 0.079 °C | 12000 nM
32 | Cc1cnc(Nc2ccc(N3CCN(C)CC3)c(F)c2)nc1Nc1ccc(Cl)c(NS(=O)(=O)CC(C)C)c1 | 8.89 ± 0.044 °C | 74.8 nM
33 | Cc1cnc(Nc2ccc(N3CCN(C)CC3)cc2)nc1Nc1ccc2c(c1)N(S(=O)(=O)C(C)(C)C)CCC2 | 8.72 ± 0.141 °C | 87.3 nM
34 | Cc1cnc(Nc2ccc(CC(=O)N3CCN(C)CC3)cc2)nc1Nc1ccc(C(=O)NC2CC2)cc1 | 6.8 ± 0.15 °C | 110 nM
35 | CN1CCN(c2ccc(Nc3ncc(F)c(Nc4ccc(C(=O)Nc5ccccc5)cc4)n3)cc2)CC1 | 0.35 ± 0.068 °C | 17000 nM
36 | COc1cc(Nc2nc(Nc3ccc(N4CCN(C)CC4)cc3)ncc2Cl)cc(OC)c1Cl | 2 ± 0.42 °C | 4700 nM
37 | Cc1cnc(Nc2ccc(N3CCN(C)CC3)c(Cl)c2)nc1Nc1ccc(Cl)c(NS(=O)(=O)C(C)(C)C)c1 | 9.54 ± 0.163 °C | 51.4 nM
38 | COc1cc(Nc2cc(C)nc(Nc3ccc(N4CCN(C)CC4)cc3)n2)ccc1Cl | 2.6 ± 0.095 °C | 2900 nM
39 | CN1CCN(c2ccc(Nc3nc4c(c(Nc5ccc(Cl)c(NS(=O)(=O)C6CC6)c5)n3)COC4)cc2)CC1 | 5.4 ± 0.2 °C | 350 nM
40 | Cc1cc(Nc2ncc(C)c(Nc3ccc(Cl)c(NS(=O)(=O)C(C)(C)C)c3)n2)ccc1N1CCN(C)CC1 | 10.4 ± 0.151 °C | 29.5 nM
41 | COc1cc(Nc2nc(Nc3ccc(N4CCN(C)CC4)cc3)ncc2Cl)c(OC)cc1Cl | 0.073 ± 0.13 °C | 20500 nM
42 | Cc1ccc(Nc2nc(Nc3ccc(C(=O)NC4CCN(C)CC4)c(F)c3)ncc2C)cc1S(=O)(=O)NC1CCC1 | 7.8 ± 0.15 °C | 54 nM
43 | Cc1cnc(Nc2ccc(N3CCN(C)CC3)c(F)c2)nc1Nc1ccc2c(c1)N(S(=O)(=O)C(C)(C)C)CC2 | 12.1 ± 0.105 °C | 9.8 nM
44 | Cc1cnc(Nc2ccc(C(=O)NC3CCN(C)CC3)c(F)c2)nc1Nc1ccc2c(c1)N(S(=O)(=O)C(C)(C)C)CC2 | 12.3 ± 0.116 °C | 8.6 nM

Further lines, results first:

Row | ΔTm at 4 µM | IC50 | SMILES
45 | 9.5 ± 0.07 °C | 14 nM | Cc1cnc(Nc2ccc(N3CCN(C)CC3)cc2)nc1Nc1ccc(F)c(NS(=O)(=O)C(C)(C)C)c1
46 | 7.2 ± 0.17 °C | 85 nM | CN1CCN(c2ccc(Nc3ncc(F)c(Nc4ccc(Cl)c(NS(=O)(=O)C(C)(C)C)c4)n3)cc2)CC1
47 | -0.34 °C | 28200 nM | CC(C)(C)c1cccc(Nc2nc(Nc3ccc(N4CCOCC4)cc3)ncc2Cl)c1
48 | 5 ± 0.13 °C | 480 nM | CC(C)NS(=O)(=O)c1cccc(Nc2nc(Nc3ccc(N4CCN(C)CC4)cc3)nc3ccccc23)c1
49 | 0.6 ± 0.14 °C | 14000 nM | CC(C)NS(=O)(=O)c1cccc(Nc2nc(Nc3ccc(N4CCN(C)CC4)cc3)nc3c2COC3)c1
50 | 3.17 ± 0.142 °C | 3130 nM | Cc1cnc(Nc2ccc(N3CCN(C)CC3)cc2)nc1Nc1cccc([N+](=O)[O-])c1
51 | 6.6 ± 0.1 °C | 140 nM | Cc1cnc(Nc2ccc(N3CCN(C)CC3)cc2)nc1Nc1cccc(OC(C)C)c1
52 | 1.9 ± 0.17 °C | 5030 nM | Cc1nc(Nc2ccc(N3CCOCC3)cc2)nc(Nc2cccc(S(=O)(=O)NC(C)(C)C)c2)c1C
53 | 4.1 ± 0.1 °C | 960 nM | Cc1cnc(Nc2ccc(N3CCN(C)CC3)cc2)nc1Nc1ccc(Cl)c(NS(=O)(=O)c2ccccc2)c1
54 | 0.12 ± 0.053 °C | 19800 nM | CN1CCN(c2ccc(Nc3ncc(Cl)c(Nc4cccc(C(C)(C)C)c4)n3)cc2)CC1
55 | 5.2 ± 0.15 °C | 400 nM | CN1CCN(c2ccc(Nc3ncc(F)c(Nc4cccc(NS(=O)(=O)C(C)(C)C)c4)n3)cc2)CC1
56 | 2.3 ± 0.073 °C | 3800 nM | CN1CCN(c2ccc(Nc3ncc(C(N)=O)c(Nc4cccc(NS(=O)(=O)C5CC5)c4)n3)cc2)CC1
57 | -0.2 ± 0.2 °C | 25000 nM | CN1CCN(c2ccc(Nc3ncc(C(=O)O)c(Nc4cccc(S(=O)(=O)NC(C)(C)C)c4)n3)cc2)CC1
58 | 2.2 °C | 3990 nM | CCc1cnc(Nc2ccc(N3CCN(C)CC3)cc2)nc1Nc1cccc(S(=O)(=O)NC(C)C)c1
59 | -0.29 °C | 27100 nM | CCc1cnc(Nc2ccc(N3CCOCC3)cc2)nc1Nc1cccc(S(=O)(=O)NC(C)C)c1
60 | 5.1 ± 0.039 °C | 430 nM | COc1ccc(Nc2nc(Nc3ccc(N4CCN(C)CC4)cc3)ncc2Cl)cc1OC
61 | 7.93 ± 0.183 °C | 145 nM | CCS(=O)(=O)Nc1cc(Nc2nc(Nc3ccc(N4CCN(C)CC4)cc3)ncc2C)ccc1Cl
62 | 0.073 ± 0.083 °C | 20500 nM | CN1CCN(c2ccc(Nc3ncc(Cl)c(Nc4ccc5c(c4)OCO5)n3)cc2)CC1
63 | -0.071 ± 0.042 °C | 22900 nM | CC(C)(C)NS(=O)(=O)c1cccc(Nc2nc(Nc3ccc(N4CCOCC4)cc3)ncc2Cl)c1
64 | -0.0056 ± 0.24 °C | > 20000 nM | CCOC(=O)c1cnc(Nc2ccc(N3CCN(C)CC3)cc2)nc1Nc1cccc(S(=O)(=O)NC(C)(C)C)c1
65 | 9.2 ± 0.12 °C | 18 nM | Cc1ccc(Nc2nc(Nc3ccc(N4CCN(C)CC4)cc3)ncc2C)cc1NS(=O)(=O)C(C)(C)C
66 | 6 ± 0.13 °C | 220 nM | CN1CCN(c2ccc(Nc3nc4c(c(Nc5cccc(NS(=O)(=O)C(C)(C)C)c5)n3)COC4)cc2)CC1
67 | 6 ± 0.1 °C | 210 nM | Cc1cnc(Nc2ccc(N3CCN(C)CC3)cc2)nc1Nc1cccc(S(=O)(=O)NC(C)C)c1
68 | 7.1 ± 0.15 °C | 92 nM | COc1cc(Nc2nc(Nc3ccc(N4CCNCC4)cc3)ncc2C)ccc1Cl
69 | 7.6 ± 0.28 °C | 61 nM | Cc1cnc(Nc2ccc(C3CCN(C)CC3)cc2)nc1Nc1cccc(NS(=O)(=O)C(C)(C)C)c1
70 | 6.1 ± 0.032 °C | 200 nM | Cc1ccc(Nc2nc(Nc3ccc(N4CCN(C)CC4)cc3)nc3ccccc23)cc1S(=O)(=O)NC(C)(C)C
